Measurements reported in patent publication US20260053921A1, “A MULTIPLEXED RNA REGULATION PLATFORM FOR PRIMARY IMMUNE CELL ENGINEERING” (The Board of Trustees of the Leland Stanford Junior …, priority 2022, published 2026).

B1: RfxCas13d: Ruminococcus flavefaciens Cas13d, SEQ ID NO: 1 (protein)
chain: MIEKKKSFAKGMGVKSTLVSGSKVYMTTFAEGSDARLEKIVEGDSIRSVNEGEAFSAEMADKNAGYKIGNAKFSHPKGYAVVANNPLYTGPVQQDMLGLKETLEKRYFGESADGNDNICIQVIHNILDIEKILAEYITNAAYAVNNISGLDKDIIGFGKFSTVYTYDEFKDPEHHRAAFNNNDKLINAIKAQYDEFDNFLDNPRLGYFGQAFFSKEGRNYIINYGNECYDILALLSGLRHWVVHNNEEESRISRTWLYNLDKNLDNEYISTLNYLYDRITNELTNSFSKNSAANVNYIAETLGINPAEFAEQYFRFSIMKEQKNLGFNITKLREVMLDRKDMSEIRKNHKVFDSIRTKVYTMMDFVIYRYYIEEDAKVAAANKSLPDNEKSLSEKDIFVINLRGSFNDDQKDALYYDEANRIWRKLENIMHNIKEFRGNKTREYKKKDAPRLPRILPAGRDVSAFSKLMYALTMFLDGKEINDLLTTLINKFDNIQSFLKVMPLIGVNAKFVEEYAFFKDSAKIADELRLIKSFARMGEPIADARRAMYIDAIRILGTNLSYDELKALADTFSLDENGNKLKKGKHGMRNFIINNVISNKRFHYLIRYGDPAHLHEIAKNEAVVKFVLGRIADIQKKQGQNGKNQIDRYYETCIGKDKGKSVSEKVDALTKIITGMNYDQFDKKRSVIEDTGRENAEREKFKKIISLYLTVIYHILKNIVNINARYVIGFHCVERDAQLYKEKGYDINLKKLEEKGFSSVTKLCAGIDETAPDKRKDVEKEMAERAKESIDSLESANPKLYANYIKYSDEKKAEEFTRQINREKAKTALNAYLRNTKWNVIIREDLLRIDNKTCTLFRNKAVHLEVARYVHAYINDIAEVNSYFQLYHYIMQRIIMNERYEKSSGKVSEYFDAVNDEKKYNDRLLKLLCVPFGYCIPRFKNLSIEALFDRNEAAKFDKEKKKVSGNS

How the values were obtained:
CD46 = experiment: Cycloheximide flow cytometric chase assay of CD46 protein degradation; assay type: cell-based; conditions: primary human T cells
transgenic GFP reporter = experiment: crRNA-guided knockdown of a transgenic GFP reporter in primary human T cells; assay type: cell-based; conditions: lentivirally-integrated

Molecule | CD46 expression after CHX addition (CD46) | functional activity: knockdown of GFP reporter (transgenic GFP reporter)
C[C@@H]1C[C@@H]([C@H](O)CC2CC(=O)NC(=O)C2)C(=O)[C@@H](C)C1 [CHX, cycloheximide] | did not reach half-maximal expression prior to T cell apoptosis | –
B1 | – | confirmed the functional activity
